This experiment concerns the target T1, horseradish peroxidase (HRP) tagged delF508-CFTR (Homo sapiens, UniProt P13569, DEL508-508).
T1 construct: expressed in transfected cells
The experiment is described as follows: Measurement of delF508-CFTR-HRP surface expression in CFBE41o- cells.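 As to DelF508-CFTR-HRP Amax %: percent efficacy relative to reference corrector lumacaftor.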 The settings on record: CFBE41o- cells; for EC50: mean of at least two replicates, read-out: DelF508-CFTR-HRP EC50; for Emax: surface expression Amax, read-out: DelF508-CFTR-HRP Amax %. The class given is cell-based. In short, it runs like this:
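CFBE41o- bronchial epithelial cells stably expressing delF508-CFTR with HRP in the fourth extracellular loop; expression induced 48h with 500 ng/mL doxycycline, then compounds added (top 10 μM, 10-point 3-fold series, ≤0.5% DMSO) for 24h at 37° C. Surface HRP measured by luminescence with cell-impermeant substrate; EC50 from logistic fit of triplicates, plate-normalized to lowest concentration; efficacy also relative to a reference corrector.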

T1 sequence (P13569 with tags, fused parts or gaps DEL508-508): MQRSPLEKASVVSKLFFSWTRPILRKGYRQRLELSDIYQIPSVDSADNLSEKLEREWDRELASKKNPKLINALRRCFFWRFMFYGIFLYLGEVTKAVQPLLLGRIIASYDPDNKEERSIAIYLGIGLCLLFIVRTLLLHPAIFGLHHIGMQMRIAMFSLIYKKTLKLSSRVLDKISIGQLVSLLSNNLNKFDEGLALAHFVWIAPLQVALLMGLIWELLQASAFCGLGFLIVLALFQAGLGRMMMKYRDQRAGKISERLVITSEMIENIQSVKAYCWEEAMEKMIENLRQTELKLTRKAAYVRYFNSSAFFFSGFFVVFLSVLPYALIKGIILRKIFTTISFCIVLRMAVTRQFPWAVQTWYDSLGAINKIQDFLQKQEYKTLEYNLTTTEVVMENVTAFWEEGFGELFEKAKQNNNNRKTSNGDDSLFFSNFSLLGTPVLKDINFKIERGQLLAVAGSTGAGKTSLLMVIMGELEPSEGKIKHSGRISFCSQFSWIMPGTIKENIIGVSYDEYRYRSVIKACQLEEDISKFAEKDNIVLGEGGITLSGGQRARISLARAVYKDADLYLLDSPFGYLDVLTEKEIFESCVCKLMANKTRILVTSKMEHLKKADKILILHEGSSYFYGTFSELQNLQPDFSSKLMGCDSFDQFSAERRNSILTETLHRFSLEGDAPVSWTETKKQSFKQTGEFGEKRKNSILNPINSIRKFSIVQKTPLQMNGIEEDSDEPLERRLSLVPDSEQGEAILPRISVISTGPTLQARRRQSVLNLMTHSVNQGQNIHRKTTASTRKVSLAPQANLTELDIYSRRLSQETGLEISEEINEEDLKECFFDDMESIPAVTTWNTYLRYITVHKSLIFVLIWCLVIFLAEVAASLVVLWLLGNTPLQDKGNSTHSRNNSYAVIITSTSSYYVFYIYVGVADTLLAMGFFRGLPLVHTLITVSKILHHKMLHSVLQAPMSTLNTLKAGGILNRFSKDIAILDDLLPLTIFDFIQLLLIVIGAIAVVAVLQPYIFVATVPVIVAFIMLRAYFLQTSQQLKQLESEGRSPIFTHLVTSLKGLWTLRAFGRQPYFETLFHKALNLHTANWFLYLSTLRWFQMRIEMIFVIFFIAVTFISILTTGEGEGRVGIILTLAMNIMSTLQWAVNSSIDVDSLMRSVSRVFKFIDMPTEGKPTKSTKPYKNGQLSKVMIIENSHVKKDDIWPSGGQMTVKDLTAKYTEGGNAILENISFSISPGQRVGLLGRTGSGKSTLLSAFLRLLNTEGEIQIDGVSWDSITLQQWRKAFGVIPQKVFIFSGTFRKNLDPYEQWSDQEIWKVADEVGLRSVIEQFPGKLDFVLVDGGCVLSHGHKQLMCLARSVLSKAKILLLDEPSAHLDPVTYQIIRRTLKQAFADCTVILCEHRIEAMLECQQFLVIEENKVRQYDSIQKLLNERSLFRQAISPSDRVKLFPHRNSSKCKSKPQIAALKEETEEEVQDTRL

In general, EC50 refers to the concentration needed to bring the measured effect to its halfway point. Regarding `CC(C)c1ccccc1-c1nc(NS(=O)(=O)c2cccc(N3CCC[C@@](C)(C(=O)O)C3)n2)ccc1Cl` [Example 392, (R)-1-(6-(N-(5-chloro-6-(2-isopropylphenyl)pyridin-2-yl)sulfamoyl)pyridin-2-yl)-3-methylpiperidine-3-carboxylic Acid], the EC50 worked out at 527 nM and the Emax is 460%. In the same order, the values of `CCc1ccccc1-c1nc(NS(=O)(=O)c2cccc(N3CCC[C@@](C)(C(=O)O)C3)n2)ccc1Cl` [Example 393, (R)-1-(6-(N-(5-chloro-6-(2-ethylphenyl)pyridin-2-yl)sulfamoyl)pyridin-2-yl)-3-methylpiperidine-3-carboxylic Acid] are 1040 nM and 680%.

With `CCc1ccccc1-c1nc(NS(=O)(=O)c2cccc(N3CCC[C@@](C)(C(=O)O)C3)n2)ccc1C(F)(F)F` [Example 394, (R)-1-(6-(N-(6-(2-ethylphenyl)-5-(trifluoromethyl)pyridin-2-yl)sulfamoyl)pyridin-2-yl)-3-methylpiperidine-3-carboxylic Acid], the half-maximal effective concentration (EC50) was found to be 1050 nM. On to `CC(C)COc1ccccc1-c1nc(NS(=O)(=O)c2cccc(N3CCC[C@@](C)(C(=O)O)C3)n2)ccc1C(F)(F)F` [Example 396, (R)-1-(6-(N-(6-(2-isobutoxyphenyl)-5-(trifluoromethyl)pyridin-2-yl)sulfamoyl)pyridin-2-yl)-3-methylpiperidine-3-carboxylic Acid], for which the EC50 is 845 nM.

On to `CC(C)COc1ccccc1-c1nc(NS(=O)(=O)c2cccc(N3CCC(C)(C(=O)O)CC3)n2)ccc1Cl` [Example 397, 1-(6-(N-(5-chloro-6-(2-isobutoxyphenyl)pyridin-2-yl)sulfamoyl)pyridin-2-yl)-4-methylpiperidine-4-carboxylic Acid], for which the EC50 worked out at 1280 nM and the Emax worked out at 303%. As for `CCCc1ccccc1-c1nc(NS(=O)(=O)c2cccc(N3CCC(C)(C(=O)O)CC3)n2)ccc1C(F)(F)F` [Example 398, 4-methyl-1-(6-(N-(6-(2-propylphenyl)-5-(trifluoromethyl)pyridin-2-yl)sulfamoyl)pyridin-2-yl)piperidine-4-carboxylic Acid], the concentration giving a half-maximal response (EC50) stood at 615 nM and the Emax was determined as 711%. Turning to `CC1(C(=O)O)CCCN(c2cccc(S(=O)(=O)Nc3ccc(C(F)(F)F)c(-c4ccccc4Cl)n3)n2)C1` (stereo not shown) [Example 399, 1-(6-(N-(6-(2-chlorophenyl)-5-(trifluoromethyl)pyridin-2-yl)sulfamoyl)pyridin-2-yl)-3-methylpiperidine-3-carboxylic Acid], the half-maximal effective concentration (EC50) was 2090 nM and the Emax was found to be 728%. For the molecule `CC(C)COc1ccccc1-c1nc(NS(=O)(=O)c2cccc(N3CCCC(C)(C(=O)O)C3)n2)ccc1Cl` (stereo not shown) [Example 400, 1-(6-(N-(5-chloro-6-(2-isobutoxyphenyl)pyridin-2-yl)sulfamoyl)pyridin-2-yl)-3-methylpiperidine-3-carboxylic Acid], the EC50 was determined as 1100 nM and the Emax came out at 672%. `CCCc1ccccc1-c1nc(NS(=O)(=O)c2cccc(N3CCCC(C)(C(=O)O)C3)n2)ccc1C(F)(F)F` (stereo not shown) [Example 401, 3-methyl-1-(6-(N-(6-(2-propylphenyl)-5-(trifluoromethyl)pyridin-2-yl)sulfamoyl)pyridin-2-yl)piperidine-3-carboxylic Acid]: the EC50 was determined as 796 nM. Take `CC1(C(=O)O)CCCN(c2cccc(S(=O)(=O)Nc3ccc(C(F)(F)F)c(-c4ccccc4C4CC4)n3)n2)C1` (stereo not shown) [Example 402, 1-(6-(N-(6-(2-cyclopropylphenyl)-5-(trifluoromethyl)pyridin-2-yl)sulfamoyl)pyridin-2-yl)-3-methylpiperidine-3-carboxylic Acid]: the EC50 was 778 nM and the Emax stood at 729%. In the same order, the values of `C[C@@]1(C(=O)O)CCCN(c2cccc(S(=O)(=O)Nc3cccc(-c4ccccc4C4CC4)n3)n2)C1` [Example 405, (R)-1-(6-(N-(6-(2-cyclopropylphenyl)pyridin-2-yl)sulfamoyl)pyridin-2-yl)-3-methylpiperidine-3-carboxylic Acid] are 2480 nM and 235%.

As to `Cc1ccc(NS(=O)(=O)c2cccc(N3CCC[C@@](C)(C(=O)O)C3)n2)nc1-c1ccccc1C1CC1` [Example 406, (R)-1-(6-(N-(6-(2-cyclopropylphenyl)-5-methylpyridin-2-yl)sulfamoyl)pyridin-2-yl)-3-methylpiperidine-3-carboxylic Acid], the 50% effective concentration (EC50) came to 1520 nM and the Emax turned out to be 334%. On to `C[C@@]1(C(=O)O)CCCN(c2cccc(S(=O)(=O)Nc3ccc(C4CC4)c(-c4ccccc4C4CC4)n3)n2)C1` [Example 407, (R)-1-(6-(N-(5-cyclopropyl-6-(2-cyclopropylphenyl)pyridin-2-yl)sulfamoyl)pyridin-2-yl)-3-methylpiperidine-3-carboxylic Acid], for which the concentration for a half-maximal effect (EC50) came out at 1610 nM and the Emax came out at 468%. In the same order, the values of `COc1ccc(NS(=O)(=O)c2cccc(N3CCC[C@@](C)(C(=O)O)C3)n2)nc1-c1ccccc1C1CC1` [Example 408, (R)-1-(6-(N-(6-(2-cyclopropylphenyl)-5-methoxypyridin-2-yl)sulfamoyl)pyridin-2-yl)-3-methylpiperidine-3-carboxylic Acid] are 1990 nM and 271%.

As for `Cc1ccccc1-c1nc(NS(=O)(=O)c2cccc(N3CCC[C@@](C)(C(=O)O)C3)n2)ccc1C` [Example 409, (R)-3-methyl-1-(6-(N-(5-methyl-6-(o-tolyl)pyridin-2-yl)sulfamoyl)pyridin-2-yl)piperidine-3-carboxylic Acid], the EC50 worked out at 1670 nM and the Emax is 330%. Regarding `COc1ccc(NS(=O)(=O)c2cccc(N3CCC[C@@](C)(C(=O)O)C3)n2)nc1-c1ccccc1C` [Example 410, (R)-1-(6-(N-(5-methoxy-6-(o-tolyl)pyridin-2-yl)sulfamoyl)pyridin-2-yl)-3-methylpiperidine-3-carboxylic Acid], the concentration for a half-maximal effect (EC50) was 1920 nM and the Emax amounted to 210%. Regarding `Cc1ccccc1-c1nc(NS(=O)(=O)c2cccc(N3CCC[C@@](C)(C(=O)O)C3)n2)ccc1C1CC1` [Example 411, (R)-1-(6-(N-(5-cyclopropyl-6-(o-tolyl)pyridin-2-yl)sulfamoyl)pyridin-2-yl)-3-methylpiperidine-3-carboxylic Acid], the concentration for a half-maximal effect (EC50) turned out to be 1390 nM and the Emax stood at 400%. Consider `Cc1ccccc1-c1cccc(NS(=O)(=O)c2cccc(N3CCC[C@@](C)(C(=O)O)C3)n2)n1` [Example 412, (R)-3-methyl-1-(6-(N-(6-(o-tolyl)pyridin-2-yl)sulfamoyl)pyridin-2-yl)piperidine-3-carboxylic Acid], for which the EC50 was determined as 1890 nM and the Emax worked out at 221%. In the same order, the values of `C[C@@]1(C(=O)O)CCCN(c2cccc(S(=O)(=O)Nc3ccc(C(F)(F)F)c(-c4ccccc4C4CC4)n3)n2)C1` [Example 413, (R)-1-(6-(N-(6-(2-cyclopropylphenyl)-5-(trifluoromethyl)pyridin-2-yl)sulfamoyl)pyridin-2-yl)-3-methylpiperidine-3-carboxylic Acid] are 576 nM and 906%. The matching figures for `COc1ccc(Cl)c(-c2nc(NS(=O)(=O)c3cccc(N4CCCC(C)(C(=O)O)C4)n3)ccc2C(F)(F)F)c1` (stereo not shown) [Example 414, 1-(6-(N-(6-(2-chloro-5-methoxyphenyl)-5-(trifluoromethyl)pyridin-2-yl)sulfamoyl)pyridin-2-yl)-3-methylpiperidine-3-carboxylic Acid]: 1890 nM and 684%. As for `Cc1ccccc1-c1nc(NS(=O)(=O)c2cccc(N3CCC[C@@](C)(C(=O)O)C3)n2)ccc1C(F)(F)F` [Example 415, (3R)-3-methyl-1-(6-{[6-(2-methylphenyl)-5-(trifluoromethyl)pyridin-2-yl]sulfamoyl}pyridin-2-yl)piperidine-3-carboxylic Acid], the EC50 is 1770 nM.

As to `Cc1ccc(F)cc1-c1nc(NS(=O)(=O)c2cccc(N3CCC[C@@](C)(C(=O)O)C3)n2)ccc1C(F)(F)F` [Example 416, (3R)-1-(6-{[6-(5-fluoro-2-methylphenyl)-5-(trifluoromethyl)pyridin-2-yl]sulfamoyl}pyridin-2-yl)-3-methylpiperidine-3-carboxylic Acid], the 50% effective concentration (EC50) stood at 1900 nM.

As for `Cc1c(F)cccc1-c1nc(NS(=O)(=O)c2cccc(N3CCC[C@@](C)(C(=O)O)C3)n2)ccc1C(F)(F)F` [Example 417, (3R)-1-(6-{[6-(3-fluoro-2-methylphenyl)-5-(trifluoromethyl)pyridin-2-yl]sulfamoyl}pyridin-2-yl)-3-methylpiperidine-3-carboxylic Acid], the concentration giving a half-maximal response (EC50) came to 1880 nM. Take `CC(C)c1ccccc1-c1nc(NS(=O)(=O)c2cccc(N[C@H]3CCC[C@H](C(=O)O)C3)n2)ccc1C(F)(F)F` [Example 418, (1S,3S)-3-((6-(N-(6-(2-isopropylphenyl)-5-(trifluoromethyl)pyridin-2-yl)sulfamoyl)pyridin-2-yl)amino)cyclohexanecarboxylic Acid]: the EC50 turned out to be 1220 nM and the Emax was 644%.

For `Cc1ccccc1-c1nc(NS(=O)(=O)c2cccc(N3CCC4(CC4C(=O)O)C3)n2)ccc1C(F)(F)F` (stereo not shown) [Example 419, 5-(6-(N-(6-(o-tolyl)-5-(trifluoromethyl)pyridin-2-yl)sulfamoyl)pyridin-2-yl)-5-azaspiro[2.4]heptane-1-carboxylic Acid], the EC50 is 2390 nM and the Emax is 644%. In the same order, the values of `O=C(O)C1CC12CCN(c1cccc(S(=O)(=O)Nc3ccc(C(F)(F)F)c(-c4ccccc4C4CC4)n3)n1)C2` (stereo not shown) [Example 420, 5-(6-(N-(6-(2-cyclopropylphenyl)-5-(trifluoromethyl)pyridin-2-yl)sulfamoyl)pyridin-2-yl)-5-azaspiro[2.4]heptane-1-carboxylic Acid] are 1920 nM and 705%.
